Laboratory results as given in ChEMBL document CHEMBL5107973, “Synthesis and structure-activity relationships of pirfenidone derivatives as anti-fibrosis agents in vitro” (RSC Med Chem, 2022).

Experiments:
NIH3T3 [1] = assay: Antiproliferative activity against TGFbeta-induced mouse NIH3T3 cells assessed as cell growth inhibition at 1 mM incubated for 48 hrs by CCK-8 assay; format: functional; settings: NIH3T3, 48 h
NIH3T3 [2] = assay: Antiproliferative activity against TGFbeta-induced mouse NIH3T3 cells assessed as cell growth inhibition incubated for 48 hrs by CCK-8 assay; format: functional, cell-based; settings: NIH3T3, 48 h
NIH3T3 [3] = assay: Anti-fibrogenic activity against mouse NIH3T3 cells assessed as inhibition of TGFbeta-induced alpha-SMA protein expression at 0.5 to 10 mM incubated for 48 hrs by western blot assay; format: functional, cell-based; settings: dose 0.5-10 mM, DDE = dose-dependent effect
NIH3T3 [4] = assay: Anti-fibrogenic activity against mouse NIH3T3 cells assessed as inhibition of TGFbeta-induced COL1 protein expression at 0.5 to 10 mM incubated for 48 hrs by western blot assay; format: functional, cell-based; settings: dose 0.5-10 mM, DDE = dose-dependent effect
NIH3T3 [5] = assay: Anti-fibrogenic activity against mouse NIH3T3 cells assessed as inhibition of TGFbeta-induced Fn protein expression at 0.5 to 10 mM incubated for 48 hrs by western blot assay; format: functional, cell-based; settings: dose 0.5-10 mM, DDE = dose-dependent effect
[6] = Metabolic stability in rat liver microsomes assessed as intrinsic clearance measured upto 45 mins in presence of NADPH by LC/MS analysis; format: ADME, Microsome; settings: read-out: CLH
[7] = Metabolic stability in rat liver microsomes assessed as half life measured upto 45 mins in presence of NADPH by LC/MS analysis; format: ADME, Microsome
NIH3T3 [8] = assay: Induction of apoptosis in TGFbeta-induced mouse NIH3T3 cells assessed as increase in apoptosis rate at 10 mM incubated for 48 hrs by Annexin V-FITC/PI staining based flow cytometry; format: functional
[9] = Metabolic stability in human liver microsomes assessed as half life measured upto 45 mins in presence of NADPH by LC/MS analysis; format: ADME, Microsome
[10] = Metabolic stability in human liver microsomes assessed as intrinsic clearance measured upto 45 mins in presence of NADPH by LC/MS analysis; format: ADME, Microsome; settings: read-out: CLH
[11] = Half life in rat at 2 mg/kg,iv by HPLC-UV analysis; format: ADME, organism-based; settings: in vivo
NIH3T3 [12] = assay: Induction of apoptosis in TGFbeta-induced mouse NIH3T3 cells assessed as increase in apoptosis rate at 0.05 to 0.2 mM incubated for 48 hrs by Annexin V-FITC/PI staining based flow cytometry; format: functional, cell-based; settings: dose 0.05-0.2 mM, DDE = dose-dependent effect
[13] = Half life in rat at 10 mg/kg,po by HPLC-UV analysis; format: ADME, organism-based; settings: in vivo
NIH3T3 [14] = assay: Anti-fibrogenic activity against mouse NIH3T3 cells assessed as inhibition of TGFbeta-induced Fn protein expression at 0.01 to 0.2 mM incubated for 48 hrs by western blot assay; format: functional, cell-based; settings: dose 0.01-0.2 mM, DDE = dose-dependent effect
[15] = Oral bioavailability in rat at 10 mg/kg by HPLC-UV analysis; format: ADME, organism-based; settings: in vivo
[16] = Tmax in rat at 2 mg/kg,iv by HPLC-UV analysis; format: ADME, organism-based; settings: in vivo
NIH3T3 [17] = assay: Anti-fibrogenic activity against mouse NIH3T3 cells assessed as reduction in TGFbeta-induced Smad3 phosphorylation level at 0.01 to 0.2 mM incubated for 48 hrs by western blot assay; format: functional, cell-based; settings: dose 0.01-0.2 mM, DDE = dose-dependent effect
[18] = AUC (0-infinity) in rat at 2 mg/kg,iv by HPLC-UV analysis; format: ADME, organism-based; design: time infinity, dose 2 mg/kg, route iv; settings: in vivo
[19] = MRT (0 to t) in rat at 10 mg/kg,po by HPLC-UV analysis; format: ADME, organism-based; settings: in vivo
[20] = AUC (0-t) in rat at 2 mg/kg,iv by HPLC-UV analysis; format: ADME, organism-based; design: dose 2 mg/kg, route iv; settings: in vivo
NIH3T3 [21] = assay: Anti-fibrogenic activity against mouse NIH3T3 cells assessed as inhibition of TGFbeta-induced COL1 protein expression at 0.01 to 0.2 mM incubated for 48 hrs by western blot assay; format: functional, cell-based; settings: dose 0.01-0.2 mM, DDE = dose-dependent effect
NIH3T3 [22] = assay: Anti-fibrogenic activity against mouse NIH3T3 cells assessed as reduction in TGFbeta-induced Smad2 phosphorylation level at 0.01 to 0.2 mM incubated for 48 hrs by western blot assay; format: functional, cell-based; settings: dose 0.01-0.2 mM, DDE = dose-dependent effect
[23] = MRT (0 to t) in rat at 2 mg/kg,iv by HPLC-UV analysis; format: ADME, organism-based; settings: in vivo
[24] = Cmax in rat at 2 mg/kg,iv by HPLC-UV analysis; format: ADME, organism-based; design: dose 2 mg/kg, route iv; settings: in vivo
[25] = AUC (0-infinity) in rat at 10 mg/kg,po by HPLC-UV analysis; format: ADME, organism-based; design: time infinity, dose 10 mg/kg, route po; settings: in vivo
NIH3T3 [26] = assay: Anti-fibrogenic activity against mouse NIH3T3 cells assessed as inhibition of TGFbeta-induced migration rate at 0.1 to 0.4 mM incubated for 48 hrs by wound healing assay; format: functional, cell-based; settings: dose 0.1-0.4 mM, DDE = dose-dependent effect
[27] = Tmax in rat at 10 mg/kg,po by HPLC-UV analysis; format: ADME, organism-based; settings: in vivo
NIH3T3 [28] = assay: Induction of apoptosis in TGFbeta-induced mouse NIH3T3 cells assessed as increase in apoptosis rate at 0.05 mM incubated for 48 hrs by Annexin V-FITC/PI staining based flow cytometry; format: functional
[29] = AUC (0-t) in rat at 10 mg/kg,po by HPLC-UV analysis; format: ADME, organism-based; design: dose 10 mg/kg, route po; settings: in vivo
[30] = Cmax in rat at 10 mg/kg,po by HPLC-UV analysis; format: ADME, organism-based; design: dose 10 mg/kg, route po; settings: in vivo
NIH3T3 [31] = assay: Anti-fibrogenic activity against mouse NIH3T3 cells assessed as inhibition of TGFbeta-induced alpha-SMA protein expression at 0.01 to 0.2 mM incubated for 48 hrs by western blot assay; format: functional, cell-based; settings: dose 0.01-0.2 mM, DDE = dose-dependent effect

Q: With `O=C(Cc1cccc(Br)c1)Nc1ccc(=O)n(-c2ccccc2)c1` as the compound, how does the inhibition at 1000 µM (NIH3T3 [1]) read?
A: 2.1%

Q: What does the source list for `O=C(Cc1ccc(Cl)cc1)Nc1ccc(=O)n(-c2ccccc2)c1`?
A: inhibition at 1000 µM (NIH3T3 [1]): 37.1%; IC50 (NIH3T3 [2]): 1340 µM

Q: Which Activity (NIH3T3 [3]) does the source give for `Cc1ccc(=O)n(-c2ccccc2)c1` [PIRFENIDONE] here?
A: Dde

Q: And the IC50 (NIH3T3 [2])?
A: 13700 µM

Q: What about the Activity (NIH3T3 [4]) of the same compound?
A: Dde

Q: What about the Activity (NIH3T3 [5]) of the same compound?
A: Dde

Q: And the CLint scaled [6]?
A: 1730 mL/min/kg

Q: And the half-life [7]?
A: 1.46 min

Q: And the Activity (NIH3T3 [8])?
A: 31.9%

Q: And the half-life [9]?
A: 5.76 min

Q: What about the CLint scaled [10] of the same compound?
A: 1230 mL/min/kg

Q: Which inhibition at 1000 µM (NIH3T3 [1]) does the source give for `O=C(Nc1ccc(=O)n(-c2ccccc2)c1)c1ccccc1F` here?
A: 3.5%

Q: For `Cc1ccccc1CC(=O)Nc1ccc(=O)n(-c2ccccc2)c1`, which inhibition at 1000 µM (NIH3T3 [1]) is on record?
A: 56.1%

Q: What about the IC50 (NIH3T3 [2]) of the same compound?
A: 730 µM

Q: Which results are given for `Cc1ccc(CC(=O)Nc2ccc(=O)n(-c3ccccc3)c2)c(C)c1`?
A: inhibition at 1000 µM (NIH3T3 [1]): 68.9%; IC50 (NIH3T3 [2]): 240 µM

Q: With `O=C(Cc1ccccc1Cl)Nc1ccc(=O)n(-c2ccccc2)c1` as the compound, how does the inhibition at 1000 µM (NIH3T3 [1]) read?
A: 35.2%

Q: What about the IC50 (NIH3T3 [2]) of the same compound?
A: 1980 µM

Q: For `O=C(Cc1c(F)cc(F)cc1F)Nc1ccc(=O)n(-c2ccccc2)c1`, which inhibition at 1000 µM (NIH3T3 [1]) is on record?
A: 28.1%

Q: With `O=C(CC1CCCCC1)Nc1ccc(=O)n(-c2ccccc2)c1` as the compound, how does the inhibition at 1000 µM (NIH3T3 [1]) read?
A: 4.5%

Q: With `Cc1cc(C)c(CC(=O)Nc2ccc(=O)n(-c3ccccc3)c2)c(C)c1` as the compound, how does the half-life [11] read?
A: 41.6 min

Q: And the Activity (NIH3T3 [12])?
A: Dde

Q: And the half-life [13]?
A: 166 min

Q: What about the inhibition at 1000 µM (NIH3T3 [1]) of the same compound?
A: 74.4%

Q: And the IC50 (NIH3T3 [2])?
A: 140 µM

Q: What about the Activity (NIH3T3 [14]) of the same compound?
A: Dde

Q: And the F [15]?
A: 51%

Q: What about the CLint scaled [6] of the same compound?
A: 110 mL/min/kg

Q: What about the half-life [7] of the same compound?
A: 22.5 min

Q: What about the Tmax [16] of the same compound?
A: 4.98 min

Q: And the Activity (NIH3T3 [17])?
A: Dde

Q: And the AUC [18]?
A: 701.17 ng·h/mL

Q: And the MRT last [19]?
A: 290 min

Q: And the AUC(0-t) [20]?
A: 701 ng·h/mL

Q: And the Activity (NIH3T3 [21])?
A: Dde

Q: What about the Activity (NIH3T3 [22]) of the same compound?
A: Dde

Q: And the MRT last [23]?
A: 51.4 min

Q: What about the Cmax [24] of the same compound?
A: 712 ng/mL

Q: And the AUC [25]?
A: 406.5 ng·h/mL

Q: And the Activity (NIH3T3 [26])?
A: Dde

Q: And the Tmax [27]?
A: 60.7 min

Q: What about the Activity (NIH3T3 [28]) of the same compound?
A: 34.5%

Q: And the half-life [9]?
A: 27.2 min

Q: And the AUC(0-t) [29]?
A: 332 ng·h/mL

Q: And the Cmax [30]?
A: 68.5 ng/mL

Q: What about the CLint scaled [10] of the same compound?
A: 63.9 mL/min/kg

Q: What about the Activity (NIH3T3 [31]) of the same compound?
A: Dde

Q: What does the source list for `O=C(Cc1ccc(F)cc1)Nc1ccc(=O)n(-c2ccccc2)c1`?
A: inhibition at 1000 µM (NIH3T3 [1]): 39%; IC50 (NIH3T3 [2]): 1560 µM

Q: With `O=C(Cc1cccc(F)c1)Nc1ccc(=O)n(-c2ccccc2)c1` as the compound, how does the inhibition at 1000 µM (NIH3T3 [1]) read?
A: 21.9%

Q: With `O=C(Cc1cccc(Cl)c1)Nc1ccc(=O)n(-c2ccccc2)c1` as the compound, how does the inhibition at 1000 µM (NIH3T3 [1]) read?
A: 27.6%

Q: For `Cc1cccc(CC(=O)Nc2ccc(=O)n(-c3ccccc3)c2)c1`, which inhibition at 1000 µM (NIH3T3 [1]) is on record?
A: 19.8%

Q: Which results are given for `O=C(Cc1ccc(Br)cc1)Nc1ccc(=O)n(-c2ccccc2)c1`?
A: inhibition at 1000 µM (NIH3T3 [1]): 45.7%; IC50 (NIH3T3 [2]): 1110 µM

Q: Which inhibition at 1000 µM (NIH3T3 [1]) does the source give for `O=C(Cc1ccccc1Br)Nc1ccc(=O)n(-c2ccccc2)c1` here?
A: 48.9%

Q: And the IC50 (NIH3T3 [2])?
A: 1090 µM

Q: Which results are given for `Cc1ccc(CC(=O)Nc2ccc(=O)n(-c3ccccc3)c2)cc1`?
A: inhibition at 1000 µM (NIH3T3 [1]): 52.2%; IC50 (NIH3T3 [2]): 950 µM

Q: Which inhibition at 1000 µM (NIH3T3 [1]) does the source give for `O=C(Cc1ccccc1F)Nc1ccc(=O)n(-c2ccccc2)c1` here?
A: 28.7%

Q: For `O=C(Cc1ccccc1C(F)(F)F)Nc1ccc(=O)n(-c2ccccc2)c1`, which inhibition at 1000 µM (NIH3T3 [1]) is on record?
A: 37.8%

Q: What about the IC50 (NIH3T3 [2]) of the same compound?
A: 1360 µM
